In patent publication US12605358B2, “Composition for preventing or treating nervous system diseases comprising compound that inhibits mTOR signaling pathway as active ingredient” (ALIAD BIOPHARMA, priority 2021, dated 2026):

Assays:
mTORC2 = target: T1, mTORC2 (Homo sapiens, UniProt P42345); experiment: mTORC2 inhibition, immunoblot of AKT Ser473 phosphorylation in HeLa cells; format: cell-based; conditions: at 40 µM, FIG. 2A
T1 construct: endogenous in cells; host or cells: HeLa
Method: HeLa cells were cultured in DMEM (Dulbesco's Modified Eagles Media) containing 10% FBS, penicillin (100 units/ml), and streptomycin (100 μg/ml) at 37° C. in a 5% CO2 incubator. Culture was started by seeding 4×10^5 cells in a 100 mm culture dish, and subcultured every 3 days.
Immunoblot analysis was performed by the following method. SDS-PAGE-developed proteins were electroblotted and transferred and a PVDF membrane was blocked by shaking for 1 hour in a TBS-T buffer (20 mM Tris, 137 mM NaCl, 0.1% Tween 20) containing 5% skim milk. The membrane was repeatedly washed with a TBS-T buffer three times for 5 minutes, and reacted with a first antibody diluted in a TBS-T buffer containing 5% skim milk or 5% BSA overnight at 4° C. Thereafter, the membrane was repeatedly washed with a TBS-T buffer three times for 5 minutes, and reacted with a second antibody diluted in a TBS-T buffer containing 5% skim milk for 30 minutes at room temperature. The membrane was repeatedly washed with a TBS-T buffer containing 5% skim milk five times for 5 minutes, and then protein bands bound to the second antibody were detected by a chemiluminescence method. […]

primary cultured neurons = experiment: LC3-II turnover analysis (LC3 immunoblot); format: cell-based, rat; conditions: FIG. 3B
[1] = system: primary cultured cerebral neurons; experiment: Aβ accumulation (6E10) and LC3 double staining; format: cell-based, rat; conditions: Aβ 0.5 or 1 μM, HN-1703 0.1 or 0.5 μM, 12 or 24 hours, FIG. 4
Method: Primary neurons culture was performed from the cerebral cortex of E16 embryos on embryonic day 16 of […] (SD, Orient Bio). Primary neurons culture (cortical neurons culture) was performed from the cerebral cortex of rat (SD, Orient Bio) embryonic 16-day (E16) embryos. The left and right hemispheres of the extracted brain were separated using sterile tweezers under a dissecting microscope, the meninges were peeled off, and then the cerebral cortex region was cut with No. 5 tweezers and collected in a Ca^2+/Mg^2+-free HBSS (Invitrogen), and mixed with an equal amount of 0.25% trypsin in a 15 ml tube and treated in a 37° C. water bath for 10 to 15 minutes. Thereafter, trypsin was inactivated by removing a portion of trypsin, leaving 1 to 2 ml of trypsin, and then adding the same amount of 20% FBS-DMEM. […]
As confirmed in Experimental Example 2 that HN-1703 may effectively promote autophagy, it was evaluated whether HN-1703 may remove Aβ oligomers accumulated in cells. In the rat embryonic (E16) cerebral cortex region, primary cultured cerebral neurons were treated with […] or 1 μM Aβ and 0.1 μM or 0.5 μM HN-1703 for 12 or 24 hours, and accumulated Aβ was stained with a 6E10 antibody and autophagy formation was simultaneously double-stained with an LC3 antibody and measured, and cell nuclei were labeled with DAPI. […]

COc1cc(OC)c2c(=O)c3cc4c(cc3oc2c1)OCO4 [HN-1703, 7,9-dimethoxy-10H-[1,3]dioxolo[4,5-b]xanthen-10-one]
inhibition of mTORC2 activity (AKT Ser473 phosphorylation) compared to the control group (mTORC2): 55% | LC3-II formation compared to the control group (primary cultured neurons; in the presence of bafilomycin A1, a lysosome mature inhibitor): significantly increased LC3-II formation | LC3-II (autophagy activation marker) compared to the control group (primary cultured neurons; up to 36 hours after treating the compound): significantly increased LC3-II | Aβ accumulated in cells removed [1]: ≥ 50% | increase of the area of LC3 puncta ([1]; concentration-dependent): ≥ 4 times
